Consider 17 compounds from ChEMBL document CHEMBL4043305, “Structure-Activity Relationship Study of Cyclic Pentapeptide Ligands for Atypical Chemokine Receptor 3 (ACKR3)” (J Med Chem, 2018).

Activity calls are given as the source filed them. The rule behind the calls is not given here.

What all share (type): cell-based
Test [1] has as its target C-X-C chemokine receptor type 4 (Homo sapiens, UniProt P61073). Put plainly: Displacement of [125I]SDF-1alpha from CXCR4 (unknown origin) expressed in HEK293 cells after 1 hr by scintillation counting method.
For test [2], the target named is T1, Atypical chemokine receptor 3 (Homo sapiens, UniProt P25106). As to the kind of experiment: Displacement of [125I]SDF-1alpha from ACKR3 (unknown origin) expressed in CHO cells at 30 uM after 1 hr by scintillation counting method. In general terms: In a radioligand displacement assay an active substance lowers the binding of a labelled ligand.
For test [3], the target named is T1, Atypical chemokine receptor 3. Put plainly: Displacement of [125I]SDF-1alpha from ACKR3 (unknown origin) expressed in CHO cells after 1 hr by scintillation counting method.
In test [4] the target is Atypical chemokine receptor 3 (Homo sapiens, UniProt P25106, D275N). As to the kind of experiment: Activation of YFP-tagged ACKR3 D275N mutant (unknown origin) expressed in HEK293E cells assessed as induction of Rluc-tagged beta-arrestin-2 recruitment after 30 mins by BRET assay. Background: Arrestin recruitment assays detect the binding of arrestin to an activated receptor.

The target in test [5] is Atypical chemokine receptor 3 (Homo sapiens, UniProt P25106, D179N). Put plainly: Activation of YFP-tagged ACKR3 D179N mutant (unknown origin) expressed in HEK293E cells assessed as induction of Rluc-tagged beta-arrestin-2 recruitment after 30 mins by BRET assay.
Test [6] deals with Atypical chemokine receptor 3 (Homo sapiens, UniProt P25106, S198R). Put plainly: Activation of YFP-tagged ACKR3 S198R mutant (unknown origin) expressed in HEK293E cells assessed as induction of Rluc-tagged beta-arrestin-2 recruitment after 30 mins by BRET assay.
Test [7] has as its target T1, Atypical chemokine receptor 3. As to the kind of experiment: Activation of YFP-tagged ACKR3 (unknown origin) expressed in HEK293E cells assessed as induction of Rluc-tagged beta-arrestin-2 recruitment after 30 mins by BRET assay.

Chain of Atypical chemokine receptor 3 (Homo sapiens, UniProt P25106, D179N) (P25106 whole entry D179N): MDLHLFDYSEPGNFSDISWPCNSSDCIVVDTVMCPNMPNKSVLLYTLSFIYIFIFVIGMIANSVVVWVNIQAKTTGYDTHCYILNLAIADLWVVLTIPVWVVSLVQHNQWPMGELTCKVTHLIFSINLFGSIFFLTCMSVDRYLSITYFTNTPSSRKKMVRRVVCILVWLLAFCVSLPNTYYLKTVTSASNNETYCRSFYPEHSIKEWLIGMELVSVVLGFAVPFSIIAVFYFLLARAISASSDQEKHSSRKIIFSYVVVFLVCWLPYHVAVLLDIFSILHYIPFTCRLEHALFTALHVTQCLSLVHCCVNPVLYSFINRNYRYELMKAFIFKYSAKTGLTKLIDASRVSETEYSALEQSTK
T1 sequence (P25106 whole entry): as the sequence (P25106 whole entry D179N) above, with N179D counted along it
Chain of Atypical chemokine receptor 3 (Homo sapiens, UniProt P25106, S198R) (P25106 whole entry S198R): as the sequence (P25106 whole entry D179N) above, with N179D, S198R counted along it
Chain of Atypical chemokine receptor 3 (Homo sapiens, UniProt P25106, D275N) (P25106 whole entry D275N): as the sequence (P25106 whole entry D179N) above, with N179D, D275N counted along it
Chain of C-X-C chemokine receptor type 4 (P61073 whole entry): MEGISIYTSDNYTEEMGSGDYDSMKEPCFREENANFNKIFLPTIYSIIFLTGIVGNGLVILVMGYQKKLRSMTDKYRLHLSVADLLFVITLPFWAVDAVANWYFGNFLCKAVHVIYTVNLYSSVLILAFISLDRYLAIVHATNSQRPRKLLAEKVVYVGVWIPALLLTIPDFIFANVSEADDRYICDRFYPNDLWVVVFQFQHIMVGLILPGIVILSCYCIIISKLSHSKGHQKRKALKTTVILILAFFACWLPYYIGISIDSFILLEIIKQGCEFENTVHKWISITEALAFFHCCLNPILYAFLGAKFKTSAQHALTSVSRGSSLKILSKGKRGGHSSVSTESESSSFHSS

For orientation: IC50 means the midpoint of a concentration-inhibition curve. Read a low IC50 as greater potency. In the case of `CN1C(=O)[C@H](CC(=O)O)NC(=O)[C@@H](Cc2ccc(O)cc2)NC(=O)[C@@H]2CCCN2C(=O)[C@H](Cc2ccc3ccccc3c2)NC(=O)[C@@H]1CCCNC(=N)N`, in test [1], the IC50 was above 30000 nM. In addition, the inhibition entry in test [2] was “inactive”.

For the compound `CN1C(=O)[C@H](CC(N)=O)NC(=O)[C@@H](Cc2ccc(O)cc2)NC(=O)[C@@H]2CCCN2C(=O)[C@H](Cc2ccc3ccccc3c2)NC(=O)[C@@H]1CCCNC(=N)N`, in test [1], the IC50 was above 30000 nM. Besides, in test [2], the inhibition result is “inactive”.

As to `CN1C(=O)[C@H](CCCNC(=N)N)NC(=O)[C@@H](Cc2ccc(O)cc2)NC(=O)[C@@H]2CCCN2C(=O)[C@H](Cc2ccc3ccccc3c2)NC(=O)[C@@H]1CCC(=O)O`, the half-maximal inhibitory concentration (IC50) in test [1] is above 30000 nM. The inhibition result in test [2] is “inactive”.

As for `CN1C(=O)[C@H](CCC(=O)O)NC(=O)[C@@H](Cc2ccc(O)cc2)NC(=O)[C@@H]2CCCN2C(=O)[C@H](Cc2ccc3ccccc3c2)NC(=O)[C@@H]1CCCNC(=N)N`, in test [1], the IC50 was above 30000 nM. In addition, in test [2], the inhibition result is “inactive”.

For `CN1C(=O)[C@H](CCCNC(=N)N)NC(=O)[C@@H](Cc2ccc(O)cc2)NC(=O)[C@@H]2CCCN2C(=O)[C@H](Cc2ccc3ccccc3c2)NC(=O)[C@@H]1CC(=O)O`, the IC50 in test [1] was above 30000 nM. Further, the inhibition result in test [2] was “inactive”.

Consider `CN1C(=O)[C@H](CCCNC(=N)N)NC(=O)[C@@H](Cc2ccc(O)cc2)NC(=O)[C@H](Cc2cccc3ccccc23)N(C)C(=O)[C@H](Cc2ccc3ccccc3c2)NC(=O)[C@@H]1CCCNC(N)=O`, for which the IC50 amounted to 170 nM in test [3] and 17000 nM in test [1]. The EC50 in test [4] (read-out: EC50) is 5500 nM; in test [4] (read-out: pEC50 (converted)) it was 6310 nM; in test [5] (read-out: EC50) it was 110 nM; in test [5] (read-out: pEC50 (converted)) it was 126 nM; in test [6] (read-out: EC50), 1900 nM; in test [7], 490 nM.

Regarding `CN1C(=O)[C@H](CCCNC(=N)N)NC(=O)[C@@H](Cc2ccccc2F)NC(=O)[C@@H]2CCCN2C(=O)[C@H](Cc2ccc3ccccc3c2)NC(=O)[C@@H]1CCCNC(N)=O`, the 50% inhibitory concentration (IC50) in test [3] is 410 nM; in test [1], above 30000 nM.

Take `CN1C(=O)[C@H](CCCNC(=N)N)NC(=O)[C@@H](Cc2ccc(O)cc2)NC(=O)[C@@H]2CCCN2C(=O)[C@H](Cc2ccc3ccccc3c2)NC(=O)[C@@H]1CCCCNC(=N)N`: the IC50 in test [3] was 560 nM; in test [1], above 30000 nM.

On to `CC(C)[C@@H]1NC(=O)[C@@H](Cc2ccc(O)cc2)NC(=O)[C@@H]2CCCN2C(=O)[C@H](Cc2ccc3ccccc3c2)NC(=O)[C@H](CCCNC(=N)N)N(C)C1=O`, for which the values for the IC50 in test [3] and in test [1] were 2000 to 24000 nM and above 30000 nM, respectively.

For `CN1C(=O)[C@H](CCCNC(=N)N)NC(=O)[C@@H](Cc2ccc(Br)cc2)NC(=O)[C@@H]2CCCN2C(=O)[C@H](Cc2ccc3ccccc3c2)NC(=O)[C@@H]1CCCNC(N)=O`, the concentration for half-maximal inhibition (IC50) in test [3] was 720 nM; in test [1], above 30000 nM.

Consider `CN1C(=O)[C@H](CO)NC(=O)[C@@H](Cc2ccc(O)cc2)NC(=O)[C@@H]2CCCN2C(=O)[C@H](Cc2ccc3ccccc3c2)NC(=O)[C@@H]1CCCNC(=N)N`, for which the IC50 in test [3] is 2000 to 24000 nM; in test [1], above 30000 nM.

For the compound `CN1C(=O)[C@H](CCCNC(=N)N)NC(=O)[C@@H](Cc2ccc(O)cc2)NC(=O)[C@@H]2CCCN2C(=O)[C@H](Cc2ccc3ccccc3c2)NC(=O)[C@@H]1CCCNC(=N)N`, the IC50 was 860 nM in test [3] and above 30000 nM in test [1]. The EC50 in test [4] (read-out: EC50) was 360 nM; in test [5] (read-out: EC50), 2200 nM; in test [5] (read-out: pEC50 (converted)) it was 2510 nM; in test [6] (read-out: EC50), 270 nM; in test [6] (read-out: pEC50 (converted)), 316 nM; in test [7], 91 nM.

On to `CN1C(=O)[C@H](CCCCNC(=N)N)NC(=O)[C@@H](Cc2ccc(O)cc2)NC(=O)[C@@H]2CCCN2C(=O)[C@H](Cc2ccc3ccccc3c2)NC(=O)[C@@H]1CCCNC(=N)N`, for which the IC50 in test [3] is 840 nM; in test [1] it was above 30000 nM.

Consider `CN1C(=O)[C@H](CCCNC(=N)N)NC(=O)[C@@H](Cc2ccc3ccccc3c2)NC(=O)[C@@H]2CCCN2C(=O)[C@H](Cc2ccc3ccccc3c2)NC(=O)[C@@H]1CCCNC(N)=O`, for which the IC50 in test [3] was 690 nM; in test [1], above 30000 nM.

On to `CN1C(=O)[C@H](CCCNC(=N)N)NC(=O)[C@@H](Cc2ccc(O)cc2)NC(=O)[C@@H]2CCCN2C(=O)[C@H](Cc2ccc3ccccc3c2)NC(=O)[C@@H]1CCCN`, for which the IC50 in test [3] was 1300 nM; in test [1], above 30000 nM.

As to `CN1C(=O)[C@H](CCCN)NC(=O)[C@@H](Cc2ccc(O)cc2)NC(=O)[C@@H]2CCCN2C(=O)[C@H](Cc2ccc3ccccc3c2)NC(=O)[C@@H]1CCCNC(=N)N`, the IC50 in test [3] was 2600 nM; in test [1], above 30000 nM.

In the case of `CN1C(=O)[C@H](CCCNC(=N)N)NC(=O)[C@@H](Cc2ccc(F)cc2)NC(=O)[C@@H]2CCCN2C(=O)[C@H](Cc2ccc3ccccc3c2)NC(=O)[C@@H]1CCCNC(N)=O`, the IC50 in test [3] was 1200 nM; in test [1], above 30000 nM.
